Tests used:
[1] = molecular target: T1, Adenosine receptor A3 (Homo sapiens) (UniProt P0DMS8); experiment: Agonist activity at human recombinant adenosine A3 receptor expressed in CHO cells assessed as inhibition of forskolin-stimulated cAMP production at 10 uM treated 45 mins before forskolin challenge measured after 15 mins by radioimmunoassay relative to NECA; type: functional, cell-based
T1 sequence (whole entry): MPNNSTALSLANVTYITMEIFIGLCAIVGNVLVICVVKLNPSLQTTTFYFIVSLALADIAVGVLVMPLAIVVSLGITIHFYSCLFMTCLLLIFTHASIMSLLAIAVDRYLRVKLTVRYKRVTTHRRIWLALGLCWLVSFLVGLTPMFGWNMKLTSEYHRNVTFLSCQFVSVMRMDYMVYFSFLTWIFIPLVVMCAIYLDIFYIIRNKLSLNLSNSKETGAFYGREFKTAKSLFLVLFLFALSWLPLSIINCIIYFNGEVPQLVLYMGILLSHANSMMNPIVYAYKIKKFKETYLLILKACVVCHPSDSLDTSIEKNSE

Adenosine receptor A3 [2] = molecular target: T2, Adenosine receptor A3 (Homo sapiens, UniProt P0DMS8); experiment: Displacement of [125I]AB-MECA from human recombinant adenosine A3 receptor expressed in CHO cells after 60 mins by gamma counting
T2 sequence (P0DMS8 whole entry): T1 sequence (whole entry)

[3] = molecular target: T3, Adenosine receptor A1 (Homo sapiens) (UniProt P30542); experiment: Inhibition of [3H]NECA binding to human recombinant adenosine A1 receptor expressed in CHO cells at 10 uM after 60 mins by liquid scintillation counting; type: cell-based
T3 sequence (whole entry): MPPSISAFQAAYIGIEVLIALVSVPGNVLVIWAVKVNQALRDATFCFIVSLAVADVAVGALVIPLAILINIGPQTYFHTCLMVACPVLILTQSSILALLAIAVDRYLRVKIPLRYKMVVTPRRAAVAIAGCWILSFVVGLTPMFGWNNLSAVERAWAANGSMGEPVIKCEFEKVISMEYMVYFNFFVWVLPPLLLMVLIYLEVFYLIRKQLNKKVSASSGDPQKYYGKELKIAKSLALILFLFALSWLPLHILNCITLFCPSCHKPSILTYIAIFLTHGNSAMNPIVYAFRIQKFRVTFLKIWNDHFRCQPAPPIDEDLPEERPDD

Adenosine receptor A2a [4] = molecular target: T4, Adenosine receptor A2a (Homo sapiens, UniProt P29274); experiment: Displacement of [3H]CGS21680 from human adenosine A2A receptor expressed in HEK293 cells after 60 mins by liquid scintillation counting; type: cell-based
Adenosine receptor A3 [5] = molecular target: T2, Adenosine receptor A3; experiment: Agonist activity at human recombinant adenosine A3 receptor expressed in CHO cells assessed as inhibition of forskolin-stimulated cAMP production treated 45 mins before forskolin challenge measured after 15 mins by radioimmunoassay relative to NECA; type: functional, cell-based
Adenosine receptor A2a [6] = molecular target: T4, Adenosine receptor A2a; experiment: Inhibition of [3H]CGS21680 binding to human adenosine A2A receptor expressed in HEK293 cells at 10 uM after 60 mins by liquid scintillation counting; type: cell-based
[7] = molecular target: T3, Adenosine receptor A1 (Homo sapiens); experiment: Inhibition of [3H]CCPA binding to human recombinant adenosine A1 receptor expressed in CHO cells at 10 uM after 60 mins by liquid scintillation counting; type: cell-based
Adenosine receptor A1 [8] = molecular target: T5, Adenosine receptor A1 (Homo sapiens, UniProt P30542); experiment: Displacement of [3H]NECA from human recombinant adenosine A1 receptor expressed in CHO cells after 60 mins by liquid scintillation counting; type: cell-based
T5 sequence (P30542 whole entry): T3 sequence (whole entry)

Homo sapiens = organism: Homo sapiens; experiment: Selectivity for human recombinant adenosine A3 receptor over human recombinant adenosine A2A receptor
[9] = molecular target: Adenosine receptors; A1 & A3 (Homo sapiens) (UniProt P30542+P0DMS8); experiment: Selectivity for human recombinant adenosine A3 receptor over human recombinant adenosine A1 receptor
Adenosine receptor A3 [10] = molecular target: T6, Adenosine receptor A3 (Rattus norvegicus, UniProt P28647); experiment: Binding affinity to rat adenosine A3 receptor expressed in CHO cells; type: cell-based
T6 sequence (P28647 whole entry): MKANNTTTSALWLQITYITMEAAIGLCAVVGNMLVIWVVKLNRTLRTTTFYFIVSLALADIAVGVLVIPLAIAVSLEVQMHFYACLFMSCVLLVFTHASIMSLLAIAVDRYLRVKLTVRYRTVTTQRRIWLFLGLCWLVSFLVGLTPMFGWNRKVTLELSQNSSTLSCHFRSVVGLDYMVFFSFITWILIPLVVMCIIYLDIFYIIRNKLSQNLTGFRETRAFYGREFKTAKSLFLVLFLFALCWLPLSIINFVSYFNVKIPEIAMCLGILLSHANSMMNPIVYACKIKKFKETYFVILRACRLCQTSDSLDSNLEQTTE

Adenosine receptor A1 [11] = molecular target: T5, Adenosine receptor A1; experiment: Displacement of [3H]CCPA from human recombinant adenosine A1 receptor expressed in CHO cells after 60 mins by liquid scintillation counting; type: cell-based
[12] = molecular target: T1, Adenosine receptor A3 (Homo sapiens); settings: CHO, 10 uM
Description: Inhibition of [125I]AB-MECA binding to human recombinant adenosine A3 receptor expressed in CHO cells at 10 uM after 60 mins by liquid scintillation counting

T4 sequence (P29274 whole entry): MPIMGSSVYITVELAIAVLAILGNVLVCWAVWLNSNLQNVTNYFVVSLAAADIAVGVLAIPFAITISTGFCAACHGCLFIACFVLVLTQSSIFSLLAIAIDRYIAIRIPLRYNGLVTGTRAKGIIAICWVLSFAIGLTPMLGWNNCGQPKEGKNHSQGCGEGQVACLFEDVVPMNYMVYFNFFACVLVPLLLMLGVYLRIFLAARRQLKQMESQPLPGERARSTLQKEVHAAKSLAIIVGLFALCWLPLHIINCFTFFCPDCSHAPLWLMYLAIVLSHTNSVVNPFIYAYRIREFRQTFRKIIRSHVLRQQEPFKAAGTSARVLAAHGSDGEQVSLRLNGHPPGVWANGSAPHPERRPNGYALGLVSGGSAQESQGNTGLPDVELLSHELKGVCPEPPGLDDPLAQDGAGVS

Compound | Efficacy [1] [%] | Ki (Adenosine receptor A3 [2]) [nM] | inhibition [3] [%] | Ki (Adenosine receptor A2a [4]) [nM] | inhibition (Adenosine receptor A2a [6]) [%] | other results
CNC(=O)[C@]12C[C@@H]1[C@@H](n1cnc3c(NCc4cccc(Cl)c4)nc(C#CCCC(=O)NCCCN)nc31)[C@H](O)[C@@H]2O | 97.9 | 3.1 | 31 | 979 |  | 
CNC(=O)[C@]12C[C@@H]1[C@@H](n1cnc3c(NCc4cccc(Cl)c4)nc(C#CCCC(=O)NCCNC(=O)CCCC[C@H]4SC[C@H]5NC(=O)N[C@H]54)nc31)[C@H](O)[C@@H]2O | 84.5 | 36.4 | 1 |  | 51 | IC50 (Adenosine receptor A3 [5]): 2.5 nM
CNC(=O)[C@]12C[C@H]1[C@@H](n1cnc3c(NCc4cccc(Cl)c4)nc(C#CCCCCC(=O)NCCN)nc31)[C@@H](O)[C@H]2O | 52 | 4630 |  |  | 5 | inhibition [7]: 36%
O[C@@H]1[C@H](O)[C@@H]2C[C@@H]2[C@H]1n1cnc2c(NCc3cccc(I)c3)nc(F)nc21 | 19 | 10.7 |  | 4000 |  | Ki (Adenosine receptor A1 [8]): 513 nM
CNC(=O)[C@]12C[C@@H]1[C@@H](n1cnc3c(NCc4cccc(Cl)c4)nc(C#CCCC(=O)OC)nc31)[C@H](O)[C@@H]2O | 90 | 5.5 | 41 |  | 43 | 
CNC(=O)[C@]12C[C@@H]1[C@@H](n1cnc3c(NCc4cccc(Cl)c4)nc(C#CCCC(=O)NCCN)nc31)[C@H](O)[C@@H]2O | 96.9 | 2.5 |  | 550 |  | Ki (Adenosine receptor A1 [8]): 2320 nM
CNC(=O)[C@]12C[C@@H]1[C@@H](n1cnc3c(NCc4cccc(Cl)c4)nc(C#CCCC(=O)NCCNC(=O)CCCCCNC(=O)CCCC[C@H]4SC[C@H]5NC(=O)N[C@H]54)nc31)[C@H](O)[C@@H]2O | 107 | 57.7 | 12 |  | 47 | fold change (FC) (Homo sapiens): 66; fold change (FC) [9]: > 170
CNC(=O)[C@]12C[C@H]1[C@@H](n1cnc3c(NCc4cccc(Cl)c4)nc(C#CCCCC(=O)O)nc31)[C@@H](O)[C@H]2O |  |  |  |  | 9 | 
O[C@@H]1[C@H](O)[C@@H]2C[C@@H]2[C@H]1n1cnc2c(NCc3cccc(I)c3)nc(Cl)nc21 | 44 |  |  |  |  | EC50 (Adenosine receptor A3 [5]): 12 nM
CNC(=O)C12C[C@@H]1[C@@H](n1cnc3c(NCc4cccc(Cl)c4)nc(C#CCCCC(=O)O)nc31)[C@H](O)[C@@H]2O (single isomer, unassigned) |  |  |  |  |  | Ki (Adenosine receptor A3 [10]): 66.5 nM
CNC(=O)[C@]12C[C@@H]1[C@@H](n1cnc3c(NCc4cccc(Cl)c4)nc(C#CCCCCC(=O)NCCN)nc31)[C@H](O)[C@@H]2O | 100 | 3.4 | 47 | 277 |  | 
NCCNC(=O)CCC#Cc1nc(NCc2cccc(Cl)c2)c2ncn([C@H]3[C@H](O)[C@H](O)[C@@H]4C[C@@H]43)c2n1 | 0.9 | 404 | 15 |  | 35 | fold change (FC) (Homo sapiens): > 20; fold change (FC) [9]: > 20
CNC(=O)[C@]12C[C@@H]1[C@@H](n1cnc3c(NCc4cccc(Cl)c4)nc(C#CCCCC(=O)OC)nc31)[C@H](O)[C@@H]2O |  |  |  |  | 49 | Ki (Adenosine receptor A1 [11]): 482 nM
O[C@@H]1[C@H](O)[C@@H]2C[C@@H]2[C@H]1n1cnc2c(NCc3cccc(I)c3)ncnc21 | 80.8 |  |  |  |  | Ki (Adenosine receptor A1 [8]): 839 nM
CNC(=O)[C@]12C[C@@H]1[C@@H](n1cnc3c(NCc4cccc(Cl)c4)nc(Cl)nc31)[C@H](O)[C@@H]2O |  |  |  | 2300 |  | Ki (Adenosine receptor A1 [11]): 260 nM
CNC(=O)[C@]12C[C@@H]1[C@@H](n1cnc3c(NCc4cccc(Cl)c4)nc(C#CCCCCC(=O)OC)nc31)[C@H](O)[C@@H]2O | 85 | 11.1 | 20 | 3540 |  | 
CNC(=O)[C@]12C[C@@H]1[C@@H](n1cnc3c(NCc4cccc(Cl)c4)nc(C#CCCCCC(=O)O)nc31)[C@H](O)[C@@H]2O | 74.4 | 12.4 | 11 |  | 38 | 
CNC(=O)[C@]12C[C@@H]1[C@@H](n1cnc3c(NCc4cccc(Cl)c4)nc(C#CCCC(=O)NCCCCN)nc31)[C@H](O)[C@@H]2O | 102 | 2.1 | 30 | 766 |  | fold change (FC) (Homo sapiens): > 5000; fold change (FC) [9]: 360; Ki (Adenosine receptor A3 [10]): 8.68 nM
CNC(=O)[C@]12C[C@H]1[C@@H](n1cnc3c(NCc4cccc(Cl)c4)nc(C#CCCC(=O)NCCN)nc31)[C@@H](O)[C@H]2O | 25.6 |  |  |  | 8 | inhibition [7]: 33%; inhibition [12]: 30%
O[C@@H]1[C@H](O)[C@@H]2C[C@@H]2[C@H]1n1cnc2c(NCc3cccc(Cl)c3)ncnc21 | 58.3 | 4.9 |  | 4520 |  | Ki (Adenosine receptor A1 [8]): 1600 nM; Ki (Adenosine receptor A3 [10]): 20.3 nM
CNC(=O)[C@]12C[C@@H]1[C@@H](n1cnc3c(NCc4cccc(Cl)c4)nc(C#CCCCC(=O)NCCN)nc31)[C@H](O)[C@@H]2O |  | 2.17 |  |  | 81 | Ki (Adenosine receptor A1 [11]): 454 nM
CNC(=O)[C@]12C[C@@H]1[C@@H](n1cnc3c(NC4CCCC4)nc(Cl)nc31)[C@H](O)[C@@H]2O | 101 |  |  |  |  | 
CNC(=O)[C@]12C[C@@H]1[C@@H](n1cnc3c(NCc4cccc(Cl)c4)nc(C#CCCC(=O)O)nc31)[C@H](O)[C@@H]2O | 106 | 61.1 | 17 |  | 24 | 
CNC(=O)[C@]12C[C@@H]1[C@@H](n1cnc3c(NCc4cccc(Cl)c4)nc(C#CCCC(=O)NCCNCCN)nc31)[C@H](O)[C@@H]2O | 87.6 | 15.4 | 33 | 890 |  | 
CNC(=O)[C@]12C[C@@H]1[C@@H](n1cnc3c(NCc4cccc(I)c4)ncnc31)[C@H](O)[C@@H]2O | 100 | 2.4 |  | 6200 |  | Ki (Adenosine receptor A1 [11]): 700 nM
O[C@@H]1[C@H](O)[C@@H]2C[C@@H]2[C@H]1n1cnc2c(NC3CCCC3)nc(Cl)nc21 | 95.1 | 120 |  | 1640 |  | Ki (Adenosine receptor A1 [8]): 109 nM
